From patent US20120121540A1 (priority 2007, published 2012) come the findings set out here.

The structures appear in SMILES notation.

This assay is described as follows: HCV replicon assay (luciferase reporter, ET cell line). Conditions: Hepatitis C virus, HCV replicon luciferase activity in ET cells. In kind it is cell-based. In short, it runs like this: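 EC50 and, via WST-1 cytotoxicity, TC50 were fitted with a Hill-coefficient equation to % inhibition across 10 two-fold dilutions. Compounds at 0.1 nM-[…] with 0.5% DMSO were applied 24 h post-seeding to replicon-bearing ET cells (luc-ubi-neo/NS3-5B, adaptive mutations). Firefly luciferase signal was measured after 48-72 h.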
On to `O=C1OC(c2ccccc2)CN1Cc1cn2cc(-c3ccoc3)cc(C(F)(F)F)c2n1` (stereo not drawn) [Compound 483, 3-(6-Furan-3-yl-8-trifluoromethyl-imidazo[1,2-a]pyridin-2-ylmethyl)-5-phenyl-oxazolidin-2-one], for which the inhibition at 10 µM was determined as 99.9%. Next, `N#Cc1cc(F)ccc1C1=CCN(C(=O)c2nc3c(C(F)(F)F)cc(-c4ccoc4)cn3c2Cl)CC1` [Compound 570, 2-[1-(3-Chloro-6-furan-3-yl-8-trifluoromethyl-imidazo[1,2-a]pyridine-2-carbonyl)-1,2,3,6-tetrahydro-pyridin-4-yl]-5-fluoro-benzonitrile]: 89.1%; `COC(=O)[C@H]1[C@@H](c2ccccc2)CCN1C(=O)c1nc2c(C(F)(F)F)cc(-c3ccoc3)cn2c1Cl` (stereo in doubt) [Compound 227, 1-(3-Chloro-6-furan-3-yl-8-trifluoromethyl-imidazO [1,2-a]pyridine-2-carbonyl)-3-phenyl-pyrrolidine-2-carboxylic Acid Methyl Ester]: 49.2%; `COc1cc(-c2ccccc2)cc2cc(C(=O)NCc3cccs3)nn12` [Compound 117, 7-Methoxy-5-phenyl-pyrazolo[1,5-a]pyridine-2-carboxylic Acid (thiophen-2-ylmethyl)-amide]: 25.8%. Turning to `COC(=O)[C@@H]1CN(C(=O)c2nc3c(C(F)(F)F)cc(-c4ccoc4)cn3c2Cl)C[C@H]1c1ccccc1` (stereo in doubt) [Compound 221, 1-(3-Chloro-6-furan-3-yl-8-trifluoromethyl-imidazo[1,2-a]pyridine-2-carbonyl)-4-phenyl-pyrrolidine-3-carboxylic Acid Methyl Ester], the inhibition at 10 µM was determined as 73.6%. For the molecule `O=C(NCc1cccs1)c1nc2c(C(F)(F)F)cc(/C=C/c3ccccc3)cn2c1Cl` [Compound 287, 3-Chloro-6-styryl-8-trifluoromethyl-imidazo[1,2-a]pyridine-2-carboxylic Acid (thiophen-2-ylmethyl)-amide], at 10 µM the inhibition was 52.3%. In turn, `O=C(Cc1nc2c(C(F)(F)F)cc(-c3ccoc3)cn2c1Cl)NCc1cccs1` [Compound 603, 2-[3-Chloro-6-(furan-3-yl)-8-(trifluoromethyl)imidazo[1,2-a]pyridin-2-yl]-N-(thiophen-2-ylmethyl)acetamide] came in with an inhibition at 10 µM of 65.8%. The molecule `N#Cc1c(F)cccc1C1=CCN(C(=O)c2nc3c(C(F)(F)F)cc(-c4ccoc4)cn3c2Cl)CC1` [Compound 614, 2-[1-(3-Chloro-6-furan-3-yl-8-trifluoromethyl-imidazo[1,2-a]pyridine-2-carbonyl)-1,2,3,6-tetrahydro-pyridin-4-yl]-6-fluoro-benzonitrile] came in with an inhibition at 10 µM of 89.7%. `O=C(c1nc2c(C(F)(F)F)cc(-c3ccco3)cn2c1Cl)N1CCN(Cc2ccccc2)CC1` [Compound 324, (4-Benzyl-piperazin-1-yl)-(3-chloro-6-furan-2-yl-8-trifluoromethyl-imidazo[1,2-a]pyridin-2-yl)-methanone] came in with an inhibition at 10 µM of 34.6%. Next, `O=C(c1nc2c(C(F)(F)F)cc(-c3ccoc3)cn2c1Cl)N1CCC1c1ccccc1` (stereo not drawn) [Compound 487, (3-Chloro-6-furan-3-yl-8-trifluoromethyl-imidazo[1,2-a]pyridin-2-yl)-(2-phenyl-azetidin-1-yl)-methanone]: 94.2%; `CC(C)(C)OC(=O)N[C@H]1CN(C(=O)c2nc3c(C(F)(F)F)cc(-c4ccoc4)cn3c2Cl)C[C@@H]1c1ccccc1` (stereo in doubt) [Compound 456, (-1-(3-Chloro-6-furan-3-yl-8-trifluoromethyl-imidazo[1,2-a]pyridine-2-carbonyl)-4-phenyl-pyrrolidin-3-yl)-carbamic acid tert-butyl ester]: 79.3%. For `CN(C)Cc1c(C(=O)NCc2cccs2)nc2c(C(F)(F)F)cc(-c3cccc(F)c3)cn12` [Compound 365, 3-Dimethylaminomethyl-6-(3-fluoro-phenyl)-8-trifluoromethyl-imidazo[1,2-a]pyridine-2-carboxylic Acid (thiophen-2-ylmethyl)-amide] the value was 4.4%; for `CN(C)CCNC(=O)[C@@H]1CN(C(=O)c2nc3c(C(F)(F)F)cc(-c4ccoc4)cn3c2Cl)C[C@H]1c1ccccc1` (stereo in doubt) [Compound 224, 1-(3-Chloro-6-furan-3-yl-8-trifluoromethyl-imidazo[1,2-a]pyridine-2-carbonyl)-4-phenyl-pyrrolidine-3-carboxylic Acid (2-dimethylamino-ethyl)-amide], 98.7%; for `O=C(c1nc2c(C(F)(F)F)cc(-c3ccoc3)cn2c1Cl)N1CC(NS(=O)(=O)C2CC2)C1` [Compound 498, Cyclopropanesulfonic Acid[1-(3-chloro-6-furan-3-yl-8-trifluoromethyl-imidazo[1,2-a]pyridine-2-carbonyl)-azetidin-3-yl]-amide], 95%. Molecule `O=C(c1nc2c(C(F)(F)F)cc(-c3ccoc3)cn2c1Cl)N1CCN(c2ccc(F)cc2F)CC1` [Compound 596, (3-Chloro-6-furan-3-yl-8-trifluoromethyl-imidazo[1,2-a]pyridin-2-yl)-[4-(2,4-difluoro-phenyl)-piperazin-1-yl]-methanone] gave an inhibition at 10 µM of 75.6%.

Turning to `O=C(NCc1cccs1)c1nn2c(Br)cc(-c3ccccc3)cc2c1Cl` [Compound 112, 7-Bromo-3-chloro-5-phenyl-pyrazolo[1,5-a]pyridine-2-carboxylic Acid (thiophen-2-ylmethyl)-amide], testing at 10 µM gave an inhibition of 74.2%.

`O=C(c1nc2c(C(F)(F)F)cc(-c3ccoc3)cn2c1Cl)N1CCC=C(c2cscn2)C1` [Compound 589, (3-Chloro-6-furan-3-yl-8-trifluoromethyl-imidazo[1,2-a]pyridin-2-yl)-(5-thiazol-4-yl-3,6-dihydro-2H-pyridin-1-yl)-methanone] registered an inhibition at 10 µM of 76%. Next, `O=C(NCc1cccs1)c1nc2c(C(F)(F)F)cc(-c3cccc(F)c3)cn2c1C#CCCO` [Compound 306, 6-(3-Fluoro-phenyl)-3-(4-hydroxy-but-1-ynyl)-8-trifluoromethyl-imidazo[1,2-a]pyridine-2-carboxylic Acid (thiophen-2-ylmethyl)-amide]: 62.5%; `O=C(c1nc2c(C(F)(F)F)cc(-c3cn[nH]c3)cn2c1Cl)N1CCC(c2ccc(F)cc2)C1` (stereo not drawn) [Compound 238, [3-Chloro-6-(1H-pyrazol-4-yl)-8-trifluoromethyl-imidazo[1,2-a]pyridin-2-yl]-[3-(4-fluoro-phenyl)-pyrrolidin-1-yl]-methanone]: 86.9%. For `C#Cc1cc(C(F)(F)F)c2nc(C(=O)NCc3cccs3)c(Cl)n2c1` [Compound 297, 3-Chloro-6-ethynyl-8-trifluoromethyl-imidazo[1,2-a]pyridine-2-carboxylic Acid (thiophen-2-ylmethyl)-amide] the value was 29.3%; for `O=C(c1nc2c(C(F)(F)F)cc(-c3ccoc3)cn2c1Cl)N1CCC(c2ccccc2)CC1` [Compound 535, (3-Chloro-6-furan-3-yl-8-trifluoromethyl-imidazo[1,2-a]pyridine-2-yl)-(4-phenyl-piperidin-1-yl)-methanone], 86.6%. `O=C(NCc1cccc(C(F)(F)F)c1)c1nc2c(C(F)(F)F)cc(-c3ccco3)cn2c1Cl` [Compound 180, 3-Chloro-6-furan-2-yl-8-trifluoromethyl-imidazo[1,2-a]pyridine-2-carboxylic acid 3-trifluoromethyl-benzylamide] gave an inhibition at 10 µM of 20.4%. Next, `O=C(NCc1cccs1)c1nc2c(Cl)cc(-c3ccccc3)cn2c1Cl` [Compound 370, 3,8-Dichloro-6-phenyl-imidazo[1,2-a]pyridine-2-carboxylic Acid (thiophen-2-ylmethyl)-amide]: 80.4%. Next, `O=C(NCc1cccs1)c1[nH]c2c(C(F)(F)F)cc(-c3ccccc3)cc2c1Cl` [Compound 104, 3-Chloro-5-phenyl-7-trifluoromethyl-1H-indole-2-carboxylic Acid (thiophen-2-ylmethyl)-amide]: 44%; `O=C(NCc1cccs1)c1cc2cc(-c3ccccc3)cc(Br)n2n1` [Compound 111, 7-Bromo-5-phenyl-pyrazolo[1,5-a]pyridine-2-carboxylic Acid (thiophen-2-ylmethyl)-amide]: 64.2%; `O=C(NCc1cccs1)c1nc2c(C(F)(F)F)cc(-c3ccoc3)cn2c1[N+](=O)[O-]` [Compound 232, 6-Furan-3-yl-3-nitro-8-trifluoromethyl-imidazo[1,2-a]pyridine-2-carboxylic Acid (thiophen-2-ylmethyl)-amide]: 56.6%.

On to `O=C(c1nc2c(C(F)(F)F)cc(-c3ccoc3)cn2c1Cl)N1CCC(c2ccccc2)=N1` [Compound 477, (3-Chloro-6-furan-3-yl-8-trifluoromethyl-imidazo[1,2-a]pyridin-2-yl)-(3-phenyl-4,5-dihydro-pyrazol-1-yl)-methanone], for which the inhibition at 10 µM amounted to 97.6%.

As to `O=C(c1nc2c(C(F)(F)F)cc(-c3ccoc3)cn2c1Cl)N1CC=C(OS(=O)(=O)C(F)(F)F)CC1` [Compound 574, Trifluoro-methanesulfonic Acid 1-(3-chloro-6-furan-3-yl-8-trifluoromethyl-imidazo[1,2-a]pyridine-2-carbonyl)-1,2,3,6-tetrahydro-pyridin-4-yl Ester], the inhibition at 10 µM turned out to be 79.1%.

For the molecule `O=C(NCc1cccs1)c1nc2c(C(F)(F)F)cc(-c3cn[nH]c3)cn2c1-c1cn[nH]c1` [Compound 485, 3,6-Bis-(1H-pyrazol-4-yl)-8-trifluoromethyl-imidazo[1,2-a]pyridine-2-carboxylic acid (thiophen-2-ylmethyl)-amide], the inhibition at 10 µM is 58.9%. Next, `N#Cc1cc(C(F)(F)F)c2nc(C(=O)NCc3cccs3)c(Cl)n2c1` [Compound 309, 3-Chloro-6-cyano-8-trifluoromethyl-imidazo[1,2-a]pyridine-2-carboxylic Acid (thiophen-2-ylmethyl)-amide]: 1.8%.
